The test system of experiment [1] is production of nitric oxide in RAW264.7 cells. Kind of experiment: Assay for inhibitory activity on the production of nitric oxide (Griess, LPS + INFγ activated cells). In kind it is cell-based, murine. Particulars: Mus musculus; test compound 10^-5 M; RAW264.7 cells activated with LPS 1 μg/ml and INFγ 3 u/ml for 18-24 hours. Here is the method:
Test: Assay for Inhibitory Activity on the Production of Nitric Oxide
The murine macrophage cell line RAW264.7 (American Type Culture Collection, No. TIB71) was used in this study. RAW264.7 cells were grown on F75 plastic culture flasks at 37° C., 5% in Dulbecco's modified Eagle's medium (DMEM) supplemented with L-glutamine, penicillin, streptomycin and 10% heat-inactivated fetal bovine serum. They were removed from culture flasks by rubber cell scraper and were centrifuged and resuspended in DMEM without phenol red. They were plated in 96-well microtiter plates (10^5 cells per well) and allowed to adhere over 2 hours. The test samples were added and the cells were preincubated for 1 hour. Thereafter the cells were activated with both of lipopolysaccharide (LPS) (1 μg/ml) and interferon γ (INFγ) (3 u/ml) for 18-24 hours. An equal volume of Griess reagent (1% sulfanilamide/0.1% N-naphthylethylenediamine dihydrochloride/2.5% H3PO4) was added and the cells were incubated at room temperature for 10 minutes. The absorbance was read at 570 nm using microplate reader and NO2 was measured using NaNO2 as a standard.

The test system of experiment [2] is rat cardiac allograft. Nature of the experiment: Rat cardiac allograft survival (Lewis donor to ACI recipient, heterotopic intra-abdominal cardiac transplantation). The class given is in vivo. The following applies: for MST (Median Survival Time): daily gastric intubation for 14 days. The method, then:
Protective effect of the compound (f) or (g) combined with FK506 on rat cardiac allograft:
(§1) Experiments were performed on male Lewis and ACI rats weighing 175-200 g. Rats were anesthetized with sodium pentobarbital (50 mg/kg, i.p), and performed allogeneic (Lewis donor to ACI recipient) heterotopic intra-abdominal cardiac transplantation. Experimental groups were divided into single-drug group and combined-drug groups. Single-drug dose of FK506 was 0.32 mg/kg. Combined-dose groups were FK506(0.32 mg/kg)+the compound (f) (3.2 mg/kg), FK506(0.32 mg/kg)+the compound (f) (10 mg/kg), and FK506(0.32 mg/kg)+the compound (g) (10 mg/kg). The grafted hearts were monitored by daily palpation and complete rejection was defined as the cessation of palpable contractile activity. Drugs were suspended in a solution of 0.5% methylcellulose, and administered by daily gastric intubation in a volume of 5 ml/kg of body weight for 14 days. The blood samples were collected on 5 days after transplantation for analysis of nitrite/nitrate (NOx). The concentration of NOx in rat plasma was measured by using a spectrophotometric assay based upon the Griess reaction.

For experiment [3], the system named is NOx in rat plasma. Nature of the experiment: Concentration of nitrite/nitrate (NOx) in rat plasma after cardiac transplantation (Griess reaction). In kind it is in vivo. The method, then: as §1

With `CCOc1ccc(-c2c(Cc3ccccc3)nc([C@H](Cc3ccccn3)NC(=O)c3cc4ccccc4[nH]3)n2C)cc1` [(a)], the inhibition at 10 µM in experiment [1] amounted to 100%.
As to `Cn1c(-c2ccc([N+](=O)[O-])cc2)cnc1[C@H](Cc1ccccn1)NC(=O)c1cc2cc(Cl)ccc2[nH]1` [(b)], in experiment [1], the inhibition at 10 µM was determined as 100%.
For the molecule `Cn1c(-c2ccc([N+](=O)[O-])cc2)cnc1[C@H](CC(=O)Nc1ccccn1)NC(=O)c1cc2ccccc2[nH]1` [(c)], the inhibition at 10 µM in experiment [1] was determined as 100%.
As to `COc1ccc(NC(=O)C[C@H](NC(=O)c2cc3ccccc3[nH]2)c2ncc(-c3ccc([N+](=O)[O-])cc3)n2C)cc1` [(d)], in experiment [1], the inhibition at 10 µM is 100%.
For the molecule `Cn1c(-c2ccc([N+](=O)[O-])cc2)cnc1[C@H](CC(=O)Nc1ccc2c(c1)OCO2)NC(=O)c1cc2ccccc2[nH]1` [(e)], the inhibition at 10 µM in experiment [1] amounted to 100%.
In the case of `Cn1c(-c2ccc(N3CCOCC3)cc2)cnc1[C@H](Cc1ccccn1)NC(=O)c1cc2cc(Cl)ccc2o1` [(g)], in experiment [1], the inhibition at 10 µM is 100%. In addition, in experiment [2] (Table 2, compound (g) 10 mg/kg + FK506 0.32 mg/kg), the “MST (Median Survival Time)” value is above 30 days. The graft survival result in experiment [2] (combination with FK506, rat cardiac allograft) is on record as “dramatically prolonged”. Moreover, in experiment [3] (rat cardiac allograft, in a dose-dependent manner), the “elevated NOx production during cardiac allograft rejection” value was “inhibited”.
As for `C=CC[C@@H]1/C=C(\C)C[C@H](C)C[C@H](OC)[C@H]2O[C@@](O)(C(=O)C(=O)N3CCCC[C@H]3C(=O)O[C@H](/C(C)=C/[C@@H]3CC[C@@H](O)[C@H](OC)C3)[C@H](C)[C@@H](O)CC1=O)[C@H](C)C[C@@H]2OC` [FK506, 17-allyl-1,14-dihydroxy-12-[2-(4-hydroxy-3-methoxycyclohexyl)-1-methylvinyl]-23,25-dimethoxy-13,19,21,27-tetramethyl-11,28-dioxa-4-azatricyclo[22.3.1.0^4,9]octacos-18-ene-2,3,10,16-tetraone, reference compound], the “MST (Median Survival Time)” value in experiment [2] (Table 1, FK506 0.32 mg/kg alone) worked out at 8.5 days; in experiment [2] (Table 2, FK506 0.32 mg/kg alone), 10 days. Besides, the NOx in experiment [3] (Table 1, FK506 0.32 mg/kg alone, rat plasma, 5 days after transplantation) is above 40 µM.
